Results taken from ChEMBL document CHEMBL1201862, “PubChem BioAssay data set” (2004).
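Following 48 hours of exposure in 96-well plates, responses at five concentrations were used to interpolate endpoints linearly. The concentration for 50% growth inhibition is given as GI50.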 Activity calls are given as the source filed them. Cut-off read from the data, not from the text of the source: active = GI50 up to about 1.1 µM and inactive = higher.

What was measured:
Assay in all cases: growth of human tumour cells (NCI), 48 h
[1] = system: M14
[2] = system: HCT-15
[3] = system: NCI-H460
[4] = system: SR
[5] = system: 786-0
[6] = system: TK-10
[7] = system: SF-295
[8] = system: OVCAR-8
[9] = system: IGROV-1
[10] = system: KM12
[11] = system: UACC-62
[12] = system: SNB-75
[13] = system: BT-549
[14] = system: ACHN
[15] = system: NCI-H23
[16] = system: HCT-116
[17] = system: NCI/ADR-RES
[18] = system: T47D
[19] = system: Malme-3M
[20] = system: SF-268

| SMILES | GI50 [1] | GI50 [2] [µM] | GI50 [3] | GI50 [4] | GI50 [5] | GI50 [6] | GI50 [7] | GI50 [8] | GI50 [9] | GI50 [10] | GI50 [11] | GI50 [12] | GI50 [13] | GI50 [14] | GI50 [15] | GI50 [16] | GI50 [17] | GI50 [18] | GI50 [19] | GI50 [20] |
| --- | --- | --- | --- | --- | --- | --- | --- | --- | --- | --- | --- | --- | --- | --- | --- | --- | --- | --- | --- | --- |
| CC(C)(C)c1cc2c(O)c(c1)COCc1cc(C(C)(C)C)cc(c1O)COCc1cc(C(C)(C)C)cc(c1O)COC2 | 88.5 µM (inactive) | > 100 | > 100 µM (inactive) | > 100 µM (inactive) | 19.1 µM (inactive) | > 100 µM (inactive) | > 100 µM (inactive) | > 100 µM (inactive) | > 100 µM (inactive) | 64.6 µM (inactive) | > 100 µM (inactive) | 9.35 µM (inactive) | > 100 µM (inactive) | 63.2 µM (inactive) | 46.1 µM (inactive) | 97.3 µM (inactive) | > 100 µM (inactive) | > 100 µM (inactive) | – | – |
| O=C(O)c1ccccc1/C=C1/Cc2ccc3c(c2C1=O)CCC3 | 35.5 µM (inactive) | 33.6 | 45.4 µM (inactive) | 39.1 µM (inactive) | 49 µM (inactive) | 90.8 µM (inactive) | 42.4 µM (inactive) | 48.1 µM (inactive) | 43.6 µM (inactive) | 37.8 µM (inactive) | 38.9 µM (inactive) | 39.4 µM (inactive) | 22.9 µM (inactive) | 37.7 µM (inactive) | 35.6 µM (inactive) | 30.7 µM (inactive) | 50.2 µM (inactive) | 89.3 µM (inactive) | 50.8 µM (inactive) | 36.1 µM (inactive) |
| Fc1cccc(F)c1C1SCc2nc3ccc(Cl)cc3n21 (centres undefined) | > 100 µM (inactive) | > 100 | > 100 µM (inactive) | 48.4 µM (inactive) | > 100 µM (inactive) | > 100 µM (inactive) | > 100 µM (inactive) | > 100 µM (inactive) | > 100 µM (inactive) | 63 µM (inactive) | > 100 µM (inactive) | 41.1 µM (inactive) | > 100 µM (inactive) | > 100 µM (inactive) | > 100 µM (inactive) | > 100 µM (inactive) | > 100 µM (inactive) | 95.3 µM (inactive) | > 100 µM (inactive) | > 100 µM (inactive) |
| CCOC1=C(c2ccccc2)N2CCCCC2O1 (centres undefined) | 3.46 µM (inactive) | 29 | 3.39 µM (inactive) | 3.71 µM (inactive) | 4.55 µM (inactive) | 5.32 µM (inactive) | 3.26 µM (inactive) | 3.89 µM (inactive) | 5.78 µM (inactive) | 3.27 µM (inactive) | 3.48 µM (inactive) | 2.83 µM (inactive) | 5.33 µM (inactive) | 4.68 µM (inactive) | 3.29 µM (inactive) | 2.88 µM (inactive) | 23.7 µM (inactive) | 2.04 µM (inactive) | 5.7 µM (inactive) | 4.34 µM (inactive) |
| COc1c(C(=O)O)cccc1-c1cccc(C(=O)NCCN(CCNC(=O)c2cccc(-c3cccc(C(=O)O)c3OC)c2OC)CCNC(=O)c2cccc(-c3cccc(C(=O)O)c3OC)c2OC)c1OC | – | 65.2 | 25.4 µM (inactive) | 10.7 µM (inactive) | 31.6 µM (inactive) | > 100 µM (inactive) | 40.5 µM (inactive) | 63 µM (inactive) | 39.8 µM (inactive) | 18.6 µM (inactive) | 25.8 µM (inactive) | 25.9 µM (inactive) | 52.1 µM (inactive) | 50.5 µM (inactive) | 64.7 µM (inactive) | 33.4 µM (inactive) | > 100 µM (inactive) | 43 µM (inactive) | 23.4 µM (inactive) | 74.8 µM (inactive) |
| COCCOC(C)C(=O)C(O)S(=O)(=O)O (centres undefined) | > 100 µM (inactive) | > 100 | > 100 µM (inactive) | > 100 µM (inactive) | > 100 µM (inactive) | > 100 µM (inactive) | > 100 µM (inactive) | > 100 µM (inactive) | > 100 µM (inactive) | > 100 µM (inactive) | > 100 µM (inactive) | > 100 µM (inactive) | > 100 µM (inactive) | > 100 µM (inactive) | > 100 µM (inactive) | > 100 µM (inactive) | > 100 µM (inactive) | > 100 µM (inactive) | > 100 µM (inactive) | > 100 µM (inactive) |
| Cc1ccc2c(c1)C(=O)c1ccc(C)nc1C2=O | 31.8 µM (inactive) | 16.9 | – | 34.1 µM (inactive) | 85.9 µM (inactive) | > 100 µM (inactive) | 24.6 µM (inactive) | 46.9 µM (inactive) | 27.7 µM (inactive) | 27.9 µM (inactive) | 21.9 µM (inactive) | 42.4 µM (inactive) | 25.6 µM (inactive) | 35.7 µM (inactive) | 18.9 µM (inactive) | 19.1 µM (inactive) | 24 µM (inactive) | 62.7 µM (inactive) | 8.71 µM (inactive) | 34.9 µM (inactive) |
| CC1CCCc2c(CC3CC(=O)NC(=O)C3)nc(N)nc21 (centres undefined) | > 100 µM (inactive) | > 100 | – | > 100 µM (inactive) | > 100 µM (inactive) | > 100 µM (inactive) | > 100 µM (inactive) | > 100 µM (inactive) | > 100 µM (inactive) | > 100 µM (inactive) | > 100 µM (inactive) | 95.7 µM (inactive) | > 100 µM (inactive) | – | > 100 µM (inactive) | > 100 µM (inactive) | > 100 µM (inactive) | > 100 µM (inactive) | > 100 µM (inactive) | > 100 µM (inactive) |
| O=C(NCCCCCCO)c1cccc2cc3ccccc3nc12 | – | 17.9 | 16 µM (inactive) | > 10 µM (inactive) | 13.8 µM (inactive) | 16.6 µM (inactive) | 16.7 µM (inactive) | 32.3 µM (inactive) | 17.7 µM (inactive) | 18.7 µM (inactive) | 16.5 µM (inactive) | 21.9 µM (inactive) | 16.2 µM (inactive) | 16.4 µM (inactive) | – | 17.2 µM (inactive) | 36.5 µM (inactive) | 10.8 µM (inactive) | – | – |
| C=CC(C)(C)c1cc([C@@H]2COc3cc(O)ccc3C2=O)c(O)c(OC)c1OC | 15.5 µM (inactive) | 14 | 17.4 µM (inactive) | 8.18 µM (inactive) | 16 µM (inactive) | 27.9 µM (inactive) | 12.2 µM (inactive) | 17.3 µM (inactive) | – | 13.2 µM (inactive) | 13 µM (inactive) | 4.63 µM (inactive) | 10.2 µM (inactive) | 16.2 µM (inactive) | 10.4 µM (inactive) | 11.8 µM (inactive) | 12.6 µM (inactive) | 3.24 µM (inactive) | 10.8 µM (inactive) | 12.6 µM (inactive) |
| COc1ccc([N+](=O)[O-])cc1[I+]c1cc([N+](=O)[O-])ccc1OC | 39.6 µM (inactive) | 41.1 | 22.5 µM (inactive) | 12.3 µM (inactive) | > 100 µM (inactive) | 58.6 µM (inactive) | 33.3 µM (inactive) | 73.6 µM (inactive) | 23 µM (inactive) | 22.7 µM (inactive) | 23.2 µM (inactive) | – | 30.9 µM (inactive) | 74.3 µM (inactive) | 55.1 µM (inactive) | 89.5 µM (inactive) | > 100 µM (inactive) | 28.8 µM (inactive) | 4.47 µM (inactive) | 25.1 µM (inactive) |
| Cc1c(F)c(NC(=O)CN(C)C)c2c(=O)cc(-c3ccc(NC(=O)CN(C)C)c(F)c3)oc2c1F | 16.3 µM (inactive) | 14.5 | 9.35 µM (inactive) | 1.5 µM (inactive) | 15.9 µM (inactive) | 7.57 µM (inactive) | 15.5 µM (inactive) | 17.8 µM (inactive) | 15.7 µM (inactive) | 13.4 µM (inactive) | 19.1 µM (inactive) | – | 17.9 µM (inactive) | 15.4 µM (inactive) | 17.3 µM (inactive) | 12.9 µM (inactive) | 14.8 µM (inactive) | 24.2 µM (inactive) | 26.3 µM (inactive) | 16.6 µM (inactive) |
| CC(=O)O[C@@H](c1nccn1Cc1ccccc1)[C@H]1OC(C)(C)O[C@@H]1[C@H]1COC(C)(C)O1 | – | > 100 | > 100 µM (inactive) | > 10 µM (inactive) | > 100 µM (inactive) | > 100 µM (inactive) | > 100 µM (inactive) | > 100 µM (inactive) | > 100 µM (inactive) | > 100 µM (inactive) | > 100 µM (inactive) | > 100 µM (inactive) | > 100 µM (inactive) | > 100 µM (inactive) | > 100 µM (inactive) | > 100 µM (inactive) | > 100 µM (inactive) | > 10 µM (inactive) | > 100 µM (inactive) | > 100 µM (inactive) |
| CC1(CCc2ccccc2)CC1(Br)Br (centres undefined) | 44.8 µM (inactive) | 54.8 | 34.1 µM (inactive) | 19.8 µM (inactive) | 21 µM (inactive) | – | 25.4 µM (inactive) | 23.6 µM (inactive) | 92 µM (inactive) | 35.7 µM (inactive) | 52 µM (inactive) | 50.6 µM (inactive) | > 100 µM (inactive) | 26.3 µM (inactive) | 43.9 µM (inactive) | 30.3 µM (inactive) | 88.9 µM (inactive) | 27.2 µM (inactive) | 22.5 µM (inactive) | 41.4 µM (inactive) |
| COC(=O)C1=C(N)C2=C(N)Oc3ccccc3C2CC1=C(C#N)C#N (centres undefined) | 19.4 µM (inactive) | 17.2 | – | 12.6 µM (inactive) | 30.9 µM (inactive) | 25.6 µM (inactive) | 25 µM (inactive) | 23.9 µM (inactive) | 18.4 µM (inactive) | 15.7 µM (inactive) | 18.1 µM (inactive) | 18 µM (inactive) | 23.4 µM (inactive) | 24.5 µM (inactive) | 19.6 µM (inactive) | 23.5 µM (inactive) | 20.2 µM (inactive) | 25.9 µM (inactive) | 21.6 µM (inactive) | 29.7 µM (inactive) |
